Read-outs that look alike come from different tables or passages of the source.
Molecular target: T1, TNF-α (Homo sapiens, UniProt P01375)
T1 construct: purchased R&D 210-TA-020/CF
Experiment: TNF-α Induced HEK Blue Cellular Assay (secreted alkaline phosphatase expression, QUANTI-Blue)
Type: cell-based
Conditions: HEK Blue TNFα reporter cells, TNF-α 100 μg/ml, 24 hrs at 37° C., inhibition of secreted alkaline phosphatase
In short: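 Compound was serially diluted from […] to 0.5 nM final, then incubated with 10,000 HEK Blue TNFα reporter cells per well and […] TNF-α for 24 h at 37° C. SEAP output was read by QUANTI-Blue absorbance at 620 nm. Inhibition was background-corrected against DMSO controls with and without stimulation, and IC50 was fitted with a 4-parameter logistic equation.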

T1 sequence (P01375 77-233 limits assumed): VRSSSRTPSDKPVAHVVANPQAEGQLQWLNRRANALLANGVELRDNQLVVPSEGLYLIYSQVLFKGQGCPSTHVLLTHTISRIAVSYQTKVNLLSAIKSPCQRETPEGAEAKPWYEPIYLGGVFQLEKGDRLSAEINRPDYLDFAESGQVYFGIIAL

| SMILES | IC50 (read-out: IC50 value) | IC50 (IC50 value) |
| --- | --- | --- |
| [2H]C([2H])([2H])N1C(=O)c2cccc(OC(F)F)c2[C@H]2C[C@@H]1c1nc3ccc(C#CC(C)OCC)cc3n12 (stereo partly drawn) [Example 78, (7R,14R)-1-(difluoromethoxy)-11-(3-ethoxybut-1-yn-1-yl)-6-(methyl-d3)-6,7-dihydro-7,14-methanobenzo[f]benzo[4,5]imidazo[1,2-a][1,4]diazocin-5(14H)-one] | 100 to 1000 nM | – |
| [2H]C([2H])([2H])N1C(=O)c2cccc(OC(F)F)c2[C@H]2C[C@@H]1c1nc3ccc(C#CC(N)CC(C)(C)O)cc3n12 (single isomer, unassigned) [Example 217, (7R,14R)-11-((R or S)-3-amino-5-hydroxy-5-methylhex-1-yn-1-yl)-1-(difluoromethoxy)-6-(methyl-d3)-6,7-dihydro-7,14-methanobenzo[f]benzo[4,5]imidazo[1,2-a][1,4]diazocin-5(14H)-one] | 10000 to 30000 nM | – |
| [2H]C([2H])([2H])N1C(=O)c2cccc(OC(F)F)c2[C@H]2C[C@@H]1c1nc3ccc(C#Cc4ccc(P(C)(C)=O)cc4)cc3n12 [Example 106, (7R,14R)-1-(difluoromethoxy)-11-((4-(dimethylphosphoryl)phenyl)ethynyl)-6-(methyl-d3)-6,7-dihydro-7,14-methanobenzo[f]benzo[4,5]imidazo[1,2-a][1,4]diazocin-5(14H)-one] | < 100 nM | – |
| [2H]C([2H])([2H])N1C(=O)c2cccc(OC(F)F)c2[C@H]2C[C@@H]1c1nc3ccc(C#CC4(C)CN(C5CC5)C4)cc3n12 [Example 211, (7R,14R)-11-((1-cyclopropyl-3-methylazetidin-3-yl)ethynyl)-1-(difluoromethoxy)-6-(methyl-d3)-6,7-dihydro-7,14-methanobenzo[f]benzo[4,5]imidazo[1,2-a][1,4]diazocin-5(14H)-one] | < 100 nM | – |
| [2H]C([2H])([2H])N1C(=O)c2cccc(OC(F)F)c2[C@H]2C[C@@H]1c1nc3ccc(C#C[C@H]4C[C@H](NC)C4)cc3n12 [Example 254, (7R,14R)-1-(difluoromethoxy)-6-(methyl-d3)-11-(((1r,3R)-3-(methylamino)cyclobutyl)ethynyl)-6,7-dihydro-7,14-methanobenzo[f]benzo[4,5]imidazo[1,2-a][1,4]diazocin-5(14H)-one] | < 100 nM | – |
| CN1C(=O)c2cccc(OC(F)F)c2[C@H]2C[C@@H]1c1nc3ccc(C#Cc4cnn(CCO)c4)cc3n12 [Example 5, (1R,11R)-18-(difluoromethoxy)-5-{2-[1-(2-hydroxyethyl)pyrazol-4-yl]ethynyl}-12-methyl-2,9,12-triazapentacyclo[9.8.1.0^{2,10}.0^{3,8}.0^{14,19}]icosa-3(8),4,6,9,14(19),15,17-heptaen-13-one] | < 100 nM | – |
| [2H]C([2H])([2H])N1C(=O)c2cccc(OC(F)F)c2[C@H]2C[C@@H]1c1nc3ccc(C#CC4CCOC4)cc3n12 (stereo partly drawn) [Example 102, (7R,14R)-1-(difluoromethoxy)-6-(methyl-d3)-11-((tetrahydrofuran-3-yl)ethynyl)-6,7-dihydro-7,14-methanobenzo[f]benzo[4,5]imidazo[1,2-a][1,4]diazocin-5(14H)-one] | < 100 nM | – |
| [2H]C([2H])([2H])N1C(=O)c2cccc(OC(F)F)c2[C@H]2C[C@@H]1c1nc3ccc(C#CC(=O)OCC)cc3n12 [Example 40, ethyl 3-((7R,14R)-1-(difluoromethoxy)-6-(methyl-d3)-5-oxo-5,6,7,14-tetrahydro-7,14-methanobenzo[f]benzo[4,5]imidazo[1,2-a][1,4]diazocin-11-yl)propiolate] | – | < 100 nM |
| [2H]C([2H])([2H])N1C(=O)c2cccc(OC(F)F)c2[C@H]2C[C@@H]1c1nc3ccc(C#Cc4cnccn4)cc3n12 [Example 22, (7R,14R)-1-(difluoromethoxy)-6-(methyl-d3)-11-(pyrazin-2-ylethynyl)-6,7-dihydro-7,14-methanobenzo[f]benzo[4,5]imidazo[1,2-a][1,4]diazocin-5(14H)-one] | < 100 nM | – |
| [2H]C([2H])([2H])N1C(=O)c2cccc(OC(F)F)c2[C@H]2C[C@@H]1c1nc3ccc(C#CCOC(C)(C)C)cc3n12 [Example 56, (7R,14R)-11-(3-(tert-butoxy)prop-1-yn-1-yl)-1-(difluoromethoxy)-6-(methyl-d3)-6,7-dihydro-7,14-methanobenzo[f]benzo[4,5]imidazo[1,2-a][1,4]diazocin-5(14H)-one] | < 100 nM | – |
| [2H]C([2H])([2H])N1C(=O)c2cccc(OC(F)F)c2[C@H]2C[C@@H]1c1nc3ccc(C#CCC(O)C(C)O)cc3n12 (single isomer, unassigned) [Example 243, (7R,14R)-1-(difluoromethoxy)-11-((4R or 4S,5S or 5R)-4,5-dihydroxyhex-1-yn-1-yl)-6-(methyl-d3)-6,7-dihydro-7,14-methanobenzo[f]benzo[4,5]imidazo[1,2-a][1,4]diazocin-5(14H)-one] | < 100 nM | – |
| [2H]C([2H])([2H])N1C(=O)c2cccc(OC(F)F)c2[C@H]2C[C@@H]1c1nc3ccc(C#CC4CC4)cc3n12 [Example 85, (7R,14R)-11-(cyclopropylethynyl)-1-(difluoromethoxy)-6-(methyl-d3)-6,7-dihydro-7,14-methanobenzo[f]benzo[4,5]imidazo[1,2-a][1,4]diazocin-5(14H)-one] | < 100 nM | – |
| [2H]C([2H])([2H])N1C(=O)c2cccc(OC(F)F)c2[C@H]2C[C@@H]1c1nc3ccc(C#Cc4cnc(P(C)(C)=O)nc4)cc3n12 [Example 100, (7R,14R)-1-(difluoromethoxy)-11-((2-(dimethylphosphoryl)pyrimidin-5-yl)ethynyl)-6-(methyl-d3)-6,7-dihydro-7,14-methanobenzo[f]benzo[4,5]imidazo[1,2-a][1,4]diazocin-5(14H)-one] | < 100 nM | – |
| [2H]C([2H])([2H])N1C(=O)c2cccc(OC(F)F)c2[C@H]2C[C@@H]1c1nc3ccc(C#CCC(=O)OC)cc3n12 [Example 138, methyl 4-((7R,14R)-1-(difluoromethoxy)-6-(methyl-d3)-5-oxo-5,6,7,14-tetrahydro-7,14-methanobenzo[f]benzo[4,5]imidazo[1,2-a][1,4]diazocin-11-yl)but-3-ynoate] | 10000 to 30000 nM | – |
| [2H]C([2H])([2H])N1C(=O)c2cccc(OC(F)F)c2[C@H]2C[C@@H]1c1nc3ccc(C#CCCN4CC(C)(C#N)C4)cc3n12 [Example 154, 1-(4-((7R,14R)-1-(difluoromethoxy)-6-(methyl-d3)-5-oxo-5,6,7,14-tetrahydro-7,14-methanobenzo[f]benzo[4,5]imidazo[1,2-a][1,4]diazocin-11-yl)but-3-yn-1-yl)-3-methylazetidine-3-carbonitrile] | < 100 nM | – |
| Cn1cc(C#Cc2ccc3nc4n(c3c2)[C@@H]2C[C@H]4NC(=O)c3cccc(OC(F)F)c32)cn1 [Example 2, (1R,11R)-18-(difluoromethoxy)-5-[2-(1-methylpyrazol-4-yl)ethynyl]-2,9,12-triazapentacyclo[9.8.1.0^∧{2,10}.0^∧{3,8}. 0^∧{14,19}]icosa-3(8),4,6,9,14(19),15,17-heptaen-13-one] | < 100 nM | – |
| [2H]C([2H])([2H])N1C(=O)c2cccc(OC(F)F)c2[C@H]2C[C@@H]1c1nc3ccc(C#CCOc4ccccc4)cc3n12 [Example 79, (7R,14R)-1-(difluoromethoxy)-6-(methyl-d3)-11-(3-phenoxyprop-1-yn-1-yl)-6,7-dihydro-7,14-methanobenzo[f]benzo[4,5]imidazo[1,2-a][1,4]diazocin-5(14H)-one] | 100 to 1000 nM | – |
| [2H]C([2H])([2H])N1C(=O)c2cccc(OC(F)F)c2[C@H]2C[C@@H]1c1nc3ccc(C#Cc4cnc(C)cn4)cc3n12 [Example 34, (7R,14R)-1-(difluoromethoxy)-6-(methyl-d3)-11-((5-methylpyrazin-2-yl)ethynyl)-6,7-dihydro-7,14-methanobenzo[f]benzo[4,5]imidazo[1,2-a][1,4]diazocin-5(14H)-one] | < 100 nM | – |
| [2H]C([2H])([2H])N1C(=O)c2cccc(OC(F)F)c2[C@H]2C[C@@H]1c1nc3ccc(C#CC4CCN(C(=O)C5(O)CC5)CC4)cc3n12 [Example 187, (7R,14R)-1-(difluoromethoxy)-11-((1-(1-hydroxycyclopropane-1-carbonyl)piperidin-4-yl)ethynyl)-6-(methyl-d3)-6,7-dihydro-7,14-methanobenzo[f]benzo[4,5]imidazo[1,2-a][1,4]diazocin-5(14H)-one] | < 100 nM | – |
| [2H]C([2H])([2H])N1C(=O)c2cccc(OC(F)F)c2[C@H]2C[C@@H]1c1nc3ccc(C#CCOC4CCC4)cc3n12 [Example 176, (7R,14R)-11-(3-cyclobutoxyprop-1-yn-1-yl)-1-(difluoromethoxy)-6-(methyl-d3)-6,7-dihydro-7,14-methanobenzo[f]benzo[4,5]imidazo[1,2-a][1,4]diazocin-5(14H)-one] | – | 100 to 1000 nM |
| O=C1N[C@@H]2C[C@H](c3c(OC(F)F)cccc31)n1c2nc2ccc(C#Cc3cnn(CCO)c3)cc21 [Example 6, (1R,11R)-18-(difluoromethoxy)-5-{2-[1-(2-hydroxyethyl)pyrazol-4-yl]ethynyl}-2,9,12-triazapentacyclo[9.8.1.0^{2,10}.0^{3,8}.0^{14,19}]icosa-3(8),4,6,9,14(19),15,17-heptaen-13-one] | < 100 nM | – |
| [2H]C([2H])([2H])N1C(=O)c2cccc(OC(F)F)c2[C@H]2C[C@@H]1c1nc3ccc(C#CC4(C)CN(C(=O)C(C)(C)C)C4)cc3n12 [Example 167, (7R,14R)-1-(difluoromethoxy)-6-(methyl-d3)-11-((3-methyl-1-pivaloylazetidin-3-yl)ethynyl)-6,7-dihydro-7,14-methanobenzo[f]benzo[4,5]imidazo[1,2-a][1,4]diazocin-5(14H)-one] | < 100 nM | – |
| [2H]C([2H])([2H])N1C(=O)c2cccc(OC(F)F)c2[C@H]2C[C@@H]1c1nc3ccc(C#CC(=O)NC(C)C)cc3n12 [Example 95, 3-((7R,14R)-1-(difluoromethoxy)-6-(methyl-d3)-5-oxo-5,6,7,14-tetrahydro-7,14-methanobenzo[f]benzo[4,5]imidazo[1,2-a][1,4]diazocin-11-yl)-N-isopropylpropiolamide] | < 100 nM | – |

— patent publication US20260365682A1, “MODULATORS OF TNF-ALPHA ACTIVITY” (Forward Therapeutics, Inc., priority 2022, published 2026)
